Source: US20230159527A1, “COMPOUNDS AS BCL-2 INHIBITORS” (Fochon Pharmaceuticals, Ltd., priority 2020, published 2023)

How the values were obtained:
Assay type in all cases: cell-based
[1] = tested on: RS4;11 cells; experiment: Cell proliferation assay, RS4;11 cells (MTS, 72 h); conditions: Homo sapiens, RS4;11 cell proliferation
Outline: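 RS4;11 cells (30000/well, RPMI-1640 plus 10% FBS) treated with compounds at 1.5-10000 nM for 72 h at 37° C, 5% CO2. Viability by MTS (2 h), absorbance at 490 nm with 650 nm reference; IC50 from proliferation inhibition.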

[2] = tested on: DoHH2 cells; experiment: Cell proliferation assay, DoHH2 cells (MTS, 120 h); conditions: Homo sapiens, DOHH-2
Outline: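 DoHH2 cells in RPMI-1640 with 10% FBS were plated at 5000/well and rested 4 h. They were then exposed to compound at nine final concentrations (10000 to 1.5 nM) for 120 h at 37 °C. Viability was read by MTS (2 h, A490) and IC50 derived by curve fitting.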

[3] = tested on: Toledo cells; experiment: Cell proliferation assay, Toledo cells (MTS, 72 h); conditions: Homo sapiens, Toledo cells, MTS, read-out: Toledo IC50
Outline: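 Toledo cells (30000/well, RPMI-1640 with 10% FBS) were preincubated for 4 h. They were then exposed to nine compound concentrations from 10000 to 1.5 nM for 72 h at 37 °C, 5% CO2. MTS was added for 2 h and absorbance read at 490 nm to give IC50.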

| IC50 [1] | Structure (SMILES) | IC50 [2] | IC50 [3] |
| --- | --- | --- | --- |
| ≤ 1 nM | CC(C)c1ccccc1C1COCCN1C1CC2(CCN(c3ccc(C(=O)NS(=O)(=O)c4cnc(NCC5(C#N)CCOCC5)c([N+](=O)[O-])c4)c(Oc4cnc5[nH]ccc5c4)c3)CC2)C1 (single isomer, unassigned) [Example A-142, (R or S)-2-((1H-pyrrolo[2,3-b]pyridin-5-yl)oxy)-N-((6-(((4-cyanotetrahydro-2H-pyran-4-yl)methyl)amino)-5-nitro-pyridin-3-yl)sulfonyl)-4-(2-(3-(2-iso-propylphenyl)morpholino)-7-azaspiro [3.5]nonan-7-yl)benzamide] | ≤ 1 nM | 9 nM |
| ≤ 1 nM | Cc1nc(NC[C@H]2CC[C@](C)(O)CC2)c([N+](=O)[O-])cc1S(=O)(=O)NC(=O)c1ccc(N2CCC3(CC2)CC(N2CCC[C@H]2c2ccccc2C(C)C)C3)cc1Oc1cnc2[nH]ccc2c1 (single isomer, unassigned) [Example A-121, 2-((1H-pyrrolo[2,3-b]pyridin-5-yl)oxy)-N-((6-((((1r,4r)-4-hydroxy-4-methylcyclohexyl)methyl)amino)-2-methyl-5-nitropyridin-3-yl)sulfonyl)-4-(2-((R or S)-2-(2-isopropylphenyl)pyrrolidin-1-yl)-7-azaspiro[3.5]nonan-7-yl) benzamide] | ≤ 1 nM | 1 nM |
| ≤ 1 nM | O=C(NS(=O)(=O)c1cnc(NCC2CCOCC2)c([N+](=O)[O-])c1)c1ccc(N2CCC3(CC2)CC(N2CCC[C@@H]2c2ccccc2C2CC2)C3)cc1Oc1cnc2[nH]ccc2c1 [Example A-3b, (R)-2-((1H-pyrrolo[2,3-b]pyridin-5-yl)oxy)-4-(2-(2-(2-cyclopropyl-phenyl)pyrrolidin-1-yl)-7-azaspiro [3.5]nonan-7-yl)-N-((5-nitro-6-(((tetrahydro-2H-pyran-4-yl)methyl)amino)pyridin-3-yl)sulfonyl) benzamide] | ≤ 1 nM | 1 nM |
| ≤ 1 nM | CC(C)c1ccccc1[C@H]1CCCN1C1CC2(CCN(c3ccc(C(=O)NS(=O)(=O)c4cnc(NCC5CCOCC5)c([N+](=O)[O-])c4)c(Oc4cnc5[nH]ccc5c4)c3)CC2)C1 [Example A-5b, (R)-2-((1H-pyrrolo[2,3-b]pyridin-5-yl)oxy)-4-(2-(2-(2-isopropylphenyl)pyrrolidin-1-yl)-7-azaspiro[3.5]nonan-7-yl)-N-((5-nitro-6-(((tetrahydro-2H-pyran-4-yl)methyl)amino)pyridin-3-yl)sulfonyl) benzamide] | ≤ 1 nM | 1 nM |
| ≤ 1 nM | CC(C)c1ccccc1[C@@H]1COCCN1C1CC2(CCN(c3ccc(C(=O)NS(=O)(=O)c4cnc(NC[C@H]5CC[C@@](C)(O)CC5)c([N+](=O)[O-])c4)c(Oc4cnc5[nH]ccc5c4)c3)CC2)C1 (single isomer, unassigned) [Example A-56a, 2-((1H-pyrrolo[2,3-b]pyridin-5-yl)oxy)-N-((6-((((1s,4s)-4-hydroxy-4-methylcyclohexyl)methyl)amino)-5-nitropyridin-3-yl)sulfonyl)-4-(2-((R or S)-3-(2-isopropylphenyl)morpho-lino)-7-azaspiro[3.5]nonan-7-yl) benzamide] | ≤ 1 nM | 1 nM |
| ≤ 1 nM | CC(C)c1ccccc1[C@@H]1CCCN1C1CC2(CCN(c3ccc(C(=O)NS(=O)(=O)c4cc5c(c([N+](=O)[O-])c4)O[C@H](CN4CCOCC4)CO5)c(Oc4cnc5[nH]ccc5c4)c3)CC2)C1 (single isomer, unassigned) [Example E-39, 2-((1H-pyrrolo [2,3-b]pyridin-5-yl)oxy)-4-(2-((R or S)-2-(2-isopropylphenyl)pyrrolidin-1-yl)-7-azaspiro[3.5]nonan-7-yl)-N-(((R)-2-(morpholinomethyl)-8-nitro-2,3-dihydrobenzo [b][1,4]dioxin-6-yl)sulfonyl) benzamide] | ≤ 1 nM | 1 nM |
| ≤ 1 nM | CC(C)c1ccccc1[C@@H]1COCCN1C1CC2(CCN(c3ccc(C(=O)NS(=O)(=O)c4cc5c(c([N+](=O)[O-])c4)O[C@H](CN4CCOCC4)CO5)c(Oc4cnc5[nH]ccc5c4)c3)CC2)C1 (single isomer, unassigned) [Example E-40, 2-((1H-pyrrolo [2,3-b]pyridin-5-yl)oxy)-4-(2-((R or S)-3-(2-isopropylphenyl)morpholino)-7-azaspiro[3.5]nonan-7-yl)-N-(((R)-2-(morpholinomethyl)-8-nitro-2,3-dihydrobenzo [b][1,4]dioxin-6-yl)sulfonyl) benzamide] | ≤ 1 nM | 1 nM |
| ≤ 1 nM | CC(C)c1ccccc1[C@H]1CCCN1C1CC2(CCN(c3ccc(C(=O)NS(=O)(=O)c4cnc(NC[C@H]5CC[C@](C)(O)CC5)c([N+](=O)[O-])c4)c(Oc4cnc5[nH]ccc5c4)c3)CC2)C1 [Example A-7b] | ≤ 1 nM | 1 nM |
| ≤ 1 nM | CC(C)c1ccccc1[C@H]1CCCN1C1CC2(CCN(c3ccc(C(=O)NS(=O)(=O)c4cnc(NCC5(F)CCOCC5)c([N+](=O)[O-])c4)c(Oc4cnc5[nH]ccc5c4)c3)CC2)C1 [Example A-31b, (R)-2-((1H-pyrrolo[2,3-b]pyridin-5-yl)oxy)-N-((6-(((4-fluorotetra-hydro-2H-pyran-4-yl)methyl)amino)-5-nitropyridin-3-yl)sulfonyl)-4-(2-(2-(2-isopropylphenyl)pyrrolidin-1-yl)-7-azaspiro[3.5]nonan-7-yl)benzamide] | ≤ 1 nM | 2 nM |
| ≤ 1 nM | CC(C)c1ccccc1C1COCCN1C1CC2(CCN(c3ccc(C(=O)NS(=O)(=O)c4cnc(NCC5CCOCC5)c([N+](=O)[O-])c4)c(Oc4cnc5[nH]ccc5c4)c3)CC2)C1 (single isomer, unassigned) [Example A-55a, (R or S)-2-((1H-pyrrolo[2,3-b]pyridin-5-yl)oxy)-4-(2-(3-(2-isopropyl-phenyl)morpholino)-7-azaspiro[3.5]nonan-7-yl)-N-((5-nitro-6-(((tetra-hydro-2H-pyran-4-yl)methyl)amino)pyridin-3-yl)sulfonyl)benzamide] | ≤ 1 nM | 5 nM |
